Laboratory results: article PMC8068820 (Viruses, 2021)
Entries after “also recorded” stand apart in the source; their conditions may differ.

Tests used:
human NTCP [1] = molecular target: T1, human NTCP (Homo sapiens, UniProt Q14973); test: [3H]preS1 peptide; assay type: binding; conditions: for [3H]preS1 binding inhibition (in words): 100 µM inhibitor where from Figure 6, SAR statements; for inhibition at 100 µM / remaining activity at 100 µM: 100 µM inhibitor; for inhibition at 100 µM: 5 nM [3H]preS1, read-out: inhibition of [3H]preS1 peptide binding; for remaining activity at 100 µM: 5 nM [3H]preS1, pre-screen, read-out: remaining [3H]preS1 binding compared to untreated control; for virus/preS1 selectivity (in words): [3H]preS1 binding versus [3H]TC uptake inhibition
T1 construct: expressed in transfected cells
T1 sequence (Q14973 1-349): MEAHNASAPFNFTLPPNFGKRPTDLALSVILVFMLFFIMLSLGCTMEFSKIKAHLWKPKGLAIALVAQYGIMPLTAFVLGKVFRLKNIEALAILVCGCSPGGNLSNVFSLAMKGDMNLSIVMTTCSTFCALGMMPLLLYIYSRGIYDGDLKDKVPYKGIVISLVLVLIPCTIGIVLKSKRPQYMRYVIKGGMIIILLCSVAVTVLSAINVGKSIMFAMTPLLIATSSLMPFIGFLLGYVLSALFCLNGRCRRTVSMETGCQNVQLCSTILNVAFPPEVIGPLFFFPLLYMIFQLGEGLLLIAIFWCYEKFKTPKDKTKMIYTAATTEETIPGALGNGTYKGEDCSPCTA

human NTCP [2] = molecular target: T1, human NTCP; test: [3H]taurocholic acid ([3H]TC) transport inhibition in NTCP-HEK293 cells; assay type: cell-based; conditions: for IC50: NTCP-HEK293 cells
HDV = test: In vitro HDV infection of NTCP-HepG2 cells (HDAg immunostaining); assay type: cell-based, Hepatitis D virus; conditions: 5 µM to 300 µM
NTCP-HepG2 cells = test: MTT cytotoxicity assay in NTCP-HepG2 cells; assay type: cell-based, human; conditions: NTCP-HepG2 cells, 5, 50 and 300 µM, 6 h incubation
[3] = 95% confidence interval, inhibition of 1 µM [3H]TC uptake, 10 min, 37 °C, read-out: IC50 ([3H]TC Uptake)
[4] = 95% confidence interval, inhibition of 5 nM [3H]preS1 binding, NTCP-HEK293 cells, 10 min, 37 °C, read-out: IC50 ([3H]preS1 Binding)
[5] = 1 µM [3H]TC, read-out: IC50 taurocholic acid uptake inhibition (single value)
[6] = 5 nM [3H]preS1, NTCP-HEK293 cells, read-out: IC50 [3H]preS1 binding inhibition (single value)

Row | [3H]preS1 binding inhibition (in words) (human NTCP [1]) | Structure (SMILES) | IC50 (human NTCP [2]; [3]) | remaining activity at 100 µM (human NTCP [1]) | IC50 (human NTCP [1]; [4]) | also measured
1 | significant, but less active inhibitors | COc1cccc([C@H](O)[C@H](c2ccccn2)[C@@H](Nc2ccccn2)c2ccccc2)c1 [S963601] |  |  |  | 
2 | significant but less potent | O[C@H](c1ccc2ccccc2c1)[C@H](c1ccccn1)[C@@H](Nc1ccccn1)c1ccccc1 [A000294559] |  |  |  | inhibition at 100 µM (human NTCP [1]): ≤ 50%
3 | relatively high | O[C@@H](c1ccccc1)[C@@H](c1ccccn1)[C@H](Nc1ccccn1)c1cccc(Br)c1 [A000289041] | > 1000 µM | < 50% | 35 to 224 µM | 
4 | inactive | Nc1ccc([C@H](O)[C@H](c2ccccn2)[C@@H](Nc2ccccn2)c2ccccc2)cc1 [A000295724] |  |  |  | 
5 | inactive | O[C@@H](c1cccnc1)[C@H](c1ccccn1)[C@@H](Nc1ccccn1)c1ccccc1 [S958009] |  |  |  | 
6 | significant, but less active inhibitors | Oc1cccc([C@H](O)[C@H](c2ccccn2)[C@@H](Nc2ccccn2)c2ccccc2)c1 [A000296584] |  |  |  | 
7 |  | O[C@H](c1ccc([C@@H](O)[C@@H](c2ccccn2)[C@H](Nc2ccccn2)c2ccccc2)cc1)[C@@H](c1ccccn1)[C@H](Nc1ccccn1)c1ccccc1 [S973509] | 202 to 775 µM | < 50% | 3 to 10 µM | IC50 (human NTCP [2]; [5]): 490 µM; IC50 (human NTCP [1]; [6]): 7 µM; virus/preS1 selectivity (in words) (human NTCP [1]): some selectivity towards the virus receptor function of NTCP; inhibition of in vitro HDV infection (in words) (HDV): significant concentration-dependent inhibition; also recorded: active against in vitro HDV infection
8 | relatively high | O[C@@H](c1ccccc1)[C@@H](c1ccccn1)[C@H](Nc1ccccn1)c1cccc2ccccc12 [S973515] | 413 to 1240 µM | < 50% | 39 to 148 µM | 
9 | inactive | O[C@H](c1ccccc1)[C@@H](c1ccccn1)[C@H](Nc1ccccc1)c1ccccc1 [A000295238] |  |  |  | 
10 |  | O[C@H](c1ccccc1)[C@@H](c1ccc2ccccc2n1)[C@H](Nc1ccccn1)c1ccccc1 [A000295013] | > 1000 µM | < 50% | 73 to 194 µM | IC50 (human NTCP [1]; [6]): ~130 µM
11 |  | O=C(Nc1ccc(Cl)cc1)c1cc(Oc2ccc(Cl)cc2)ccc1NS(=O)(=O)c1ccc(Cl)cc1 [A000028897] | 16 to 62 µM | < 50% | 3 to 24 µM | virus/preS1 selectivity (in words) (human NTCP [1]): more or less non-selective; Cytotoxicity (in words) (NTCP-HepG2 cells): obvious cytotoxicity even at low (5 µM) concentrations; also recorded: toxic
12 | significant but less potent | O[C@@H](c1ccccc1)[C@@H](c1ccccn1)[C@H](Nc1ccccn1)c1ccsc1 [A000344053] |  |  |  | inhibition at 100 µM (human NTCP [1]): ≤ 50%
13 | significant but less potent | O[C@@H](c1ccccc1)[C@H](c1ccccn1)[C@@H](Nc1ccc(Cl)cn1)c1ccccc1 [A000296575] |  |  |  | inhibition at 100 µM (human NTCP [1]): ≤ 50%
14 | significant but less potent | O[C@H](c1ccccc1)[C@@H](c1ccccn1)[C@H](Nc1ccc(F)cn1)c1ccccc1 [A000295230] |  |  |  | inhibition at 100 µM (human NTCP [1]): ≤ 50%
15 |  | O=Cc1cccc([C@@H]([C@H](Nc2ccccn2)c2ccccc2)[C@@H](O)c2ccccc2)n1 [S985852] | 13 to 34 µM | < 50% | 8 to 24 µM | IC50 (human NTCP [2]; [5]): 24 µM; IC50 (human NTCP [1]; [6]): ~15 µM; virus/preS1 selectivity (in words) (human NTCP [1]): more or less non-selective; inhibition of in vitro HDV infection (in words) (HDV): significant concentration-dependent inhibition; also recorded: active against in vitro HDV infection; Cytotoxicity (in words) (NTCP-HepG2 cells): critical cytotoxicity at 300 µM

Row | Structure (SMILES) | [3H]preS1 binding inhibition (in words) (human NTCP [1]) | IC50 (human NTCP [2]; [3]) | remaining activity at 100 µM (human NTCP [1]) | IC50 (human NTCP [1]; [4]) | also measured
16 | O[C@@H](c1ccccc1)[C@H](c1ccccn1)[C@@H](Nc1ccccn1)c1ccccc1 [S957291] | significantly increased the inhibitory potency |  |  |  | [3H]TC uptake inhibition (in words) (human NTCP [2]; 100 µM inhibitor, Figure 6): significantly increased the inhibitory potency
17 | COc1ccc([C@H](O)[C@H](c2ccccn2)[C@@H](Nc2ccccn2)c2ccccc2)cc1 [A000295231] | even further improved the inhibitory potency | 341 to 1220 µM | < 50% | 4 to 29 µM | IC50 (human NTCP [2]; [5]): 780 µM; IC50 (human NTCP [1]; [6]): 17 µM; virus/preS1 selectivity (in words) (human NTCP [1]): some selectivity towards the virus receptor function of NTCP; inhibition of in vitro HDV infection (in words) (HDV): significant concentration-dependent inhibition; also recorded: active against in vitro HDV infection
18 | COc1ccc(N[C@H](c2ccccc2)[C@H](c2ccccn2)[C@H](O)c2ccccc2)nc1 [A000295480] | relatively high | 145 to 1320 µM | < 50% | 32 to 297 µM | virus/preS1 selectivity (in words) (human NTCP [1]): more or less non-selective
